Several values for one entry are separate records, joined by “and”; a condition that tells them apart may be missing. Identical values can stand only once. Like-named read-outs stand apart in the source and are kept apart here. Marks after values point to notes of the source that are not given here.
Columns and labels:
D2L dopamine receptor = D2L dopamine receptor (Homo sapiens (Human), UniProt P14416); assay: cell-based; format: cell-based
Method: (§1) The ability of the lead compound to dose-dependently decrease forskolin-induced cAMP levels is measured. The IC50 values for each receptor subtype is determined by fitting the data points using the Hill equation.
(§2) AtT-20 mouse pituitary cells were grown in Ham's F10 medium with 5% FBS, 10% heat-inactivated horse serum, 2 mM glutamine and 50 μg/ml gentamicin (Invitrogen, Carlsbad, Calif.). AtT-20 cells stabling expressing the human D2S, D2L, D3, and D4.2 and receptor were maintained in the above F10 culture media supplemented with 500 μg/ml G418 (Invitrogen). For electrophysiological characterization, cells were plated onto glass coverslips coated with 40 μg/ml poly L-lysine (Sigma-Aldrich). […] Physiol. […] Neurosci. […] Biophys. […] Neurosci.
(§3) The cAMP levels in each treated sample were assayed in triplicate and the entire experiment repeated three independent times.
(§4) To compare the functional effects of the new class of D3 receptor agonists, PBZI (Table 2) and ES609 (Table 3) were tested on AtT-20 cells stably expressing human D3, D2S, D2L or D4.2.

D4.2 dopamine receptor = D4.2 dopamine receptor (Homo sapiens (Human), UniProt P21917, DEL265-296); assay: cell-based; format: cell-based
D4.2 dopamine receptor, sequence (P21917 other isoform, or with tags, fused parts or gaps del 265-296): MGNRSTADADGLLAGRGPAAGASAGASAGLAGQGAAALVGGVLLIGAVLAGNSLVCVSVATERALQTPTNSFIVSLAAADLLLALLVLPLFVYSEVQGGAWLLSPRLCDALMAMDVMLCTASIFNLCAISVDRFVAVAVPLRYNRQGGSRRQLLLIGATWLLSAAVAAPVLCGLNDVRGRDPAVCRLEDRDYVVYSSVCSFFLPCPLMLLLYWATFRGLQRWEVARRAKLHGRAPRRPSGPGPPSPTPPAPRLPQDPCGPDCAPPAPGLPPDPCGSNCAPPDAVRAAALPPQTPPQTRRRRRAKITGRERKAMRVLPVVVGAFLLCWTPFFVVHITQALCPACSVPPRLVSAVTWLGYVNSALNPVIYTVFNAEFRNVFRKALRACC
Method: as §1, §2, §3, §4

D3 dopamine receptor = D3 dopamine receptor (Homo sapiens (Human), UniProt P35462); assay: GIRK channel activation, whole cell voltage clamp, AtT-20 cells stably expressing D3; format: cell-based; conditions: for specificity of agonist effect (eticlopride pretreatment / parental cells): D2/D3 antagonist eticlopride (100 nM); for GIRK channel activation: agonist type / EC50: D3; for GIRK channel activation: agonist type: versus full agonist quinpirole; for EC50: GIRK channel activation EC50, AtT-20 cells
D3 dopamine receptor, sequence (P35462 other isoform, or with tags, fused parts or gaps): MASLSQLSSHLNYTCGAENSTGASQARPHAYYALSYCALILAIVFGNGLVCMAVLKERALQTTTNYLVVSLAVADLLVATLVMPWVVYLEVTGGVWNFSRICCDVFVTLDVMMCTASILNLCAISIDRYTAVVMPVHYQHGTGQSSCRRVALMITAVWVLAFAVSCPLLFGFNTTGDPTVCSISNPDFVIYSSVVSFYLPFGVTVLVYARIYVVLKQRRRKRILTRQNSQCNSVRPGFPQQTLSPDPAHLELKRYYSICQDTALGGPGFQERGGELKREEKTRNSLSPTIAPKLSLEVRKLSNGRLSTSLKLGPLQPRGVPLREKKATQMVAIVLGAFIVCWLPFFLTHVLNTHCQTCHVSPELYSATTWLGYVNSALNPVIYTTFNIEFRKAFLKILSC
Method: The activation of the GIRK channels was measured electrophysiologically using whole cell voltage clamp recording (Kuzhikandathil et al., 2004, Mol. Cell. Neurosci. 26:144-155). […]. The adenylyl cyclase inhibition was determined using a commercially available ELISA assay (Westrich & Kuzhikandathil, 2007, Biochim. Biophys. Acta-Mol. Cell. Res. 1773:1747-1758).
. In the initial screen, the ability of 300 nM lead compound to activate G-protein coupled inward rectifier potassium (GIRK) channels (FIG. 1) is measured using whole cell voltage clamp recording. The protocol has been previously used for performing whole cell voltage clamp and measuring agonist-induced GIRK response. […]. The EC50 values for each receptor subtype is determined by fitting the data points using the Hill equation.
AtT-20 mouse pituitary cells were grown in Ham's F10 medium with 5% FBS, 10% heat-inactivated horse serum, 2 mM glutamine and 50 μg/ml gentamicin (Invitrogen, Carlsbad, Calif.). AtT-20 cells stabling expressing the human D2S, D2L, D3, and D4.2 and receptor were maintained in the above F10 culture media supplemented with 500 μg/ml G418 (Invitrogen). For electrophysiological characterization, cells were plated onto glass coverslips coated with 40 μg/ml poly L-lysine (Sigma-Aldrich). […]. Physiol. 115:697-706; Kuzhikandathil et al., 1998, Mol. Cell. Neurosci. 12:390-402; Kuzhikandathil & Bartoszyk, 2006, Neuropharm. 51:873-884; Westrich & Kuzhikandathil, 2007, Biochim. Biophys. Acta-MCR 1773:1747-1758; Kuzhikandathil et al., 2004, Mol. Cell. Neurosci. 26:144-155; Westrich et al., 2010, Biochem. Pharmacol. 79:897-907).
Agonist-activated currents were measured by the whole-cell patch clamp technique in voltage clamp and current clamp mode as described previously (Kuzhikandathil & Oxford, 2000, J. Gen. Physiol. 115:697-706; Kuzhikandathil et al., 1998, Mol. Cell. Neurosci. 12:390-402; Kuzhikandathil & Bartoszyk, 2006, Neuropharm. 51:873-884; Westrich & Kuzhikandathil, 2007, Biochim. Biophys. Acta-MCR 1773:1747-1758; Kuzhikandathil et al., 2004, Mol. Cell. Neurosci. 26:144-155; Westrich et al., 2010, Biochem. Pharmacol. 79:897-907). Drug solutions were delivered to cells via a multi-barreled micropipette array. The current responses were normalized to the cell capacitance, to account for variation in cell size.
as §4, with “D4.2. […]. The EC50 values of PBZI and ES609 for inhibiting adenylyl cyclase and activating GIRK channels were in the range of 0.2 nM to 30 nM for D3 receptors. […]. […]” for “D4.2.”

[1] = system: intrastriatal 6-OHDA lesioned rats; assay: Forelimb stepping test in intrastriatal 6-OHDA lesioned rats; conditions: for motor deficits in a rat PD model: FIG. 18

D2L dopamine receptor, sequence (P14416 whole entry): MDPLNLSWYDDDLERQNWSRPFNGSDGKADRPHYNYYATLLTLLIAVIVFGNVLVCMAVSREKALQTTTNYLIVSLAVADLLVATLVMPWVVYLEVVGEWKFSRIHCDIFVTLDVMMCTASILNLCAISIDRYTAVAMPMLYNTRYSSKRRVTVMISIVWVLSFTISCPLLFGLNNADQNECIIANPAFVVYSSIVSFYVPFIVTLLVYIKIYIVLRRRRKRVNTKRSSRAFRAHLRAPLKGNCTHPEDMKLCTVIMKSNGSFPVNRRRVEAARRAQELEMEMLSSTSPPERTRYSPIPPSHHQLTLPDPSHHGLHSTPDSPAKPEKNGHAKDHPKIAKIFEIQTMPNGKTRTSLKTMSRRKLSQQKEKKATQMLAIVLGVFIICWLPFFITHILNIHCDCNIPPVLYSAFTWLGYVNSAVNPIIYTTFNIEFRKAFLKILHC

Structure (SMILES): CC(N)CCc1ccccc1Cl (stereo not shown) [ES609]
- Adenylyl cyclase inhibition: agonist type (D2L dopamine receptor): did not elicit any response
- Adenylyl cyclase inhibition EC50 (D2L dopamine receptor; AtT-20 cells, D2L): No response
- Adenylyl cyclase inhibition Ratio of ES609 to quinpirole response (at 300 nM) (D2L dopamine receptor; D2L, 300 nM): 0^†
- adenylyl cyclase inhibition at 300 nM (D2L dopamine receptor; D2L, 300 nM): ^†no adenylyl cyclase inhibition in the presence of 300 nM ES609; but 300 nM quinpirole elicits ~80% inhibition.
- Adenylyl cyclase inhibition: agonist type (D2L dopamine receptor; listed as ES0609): No response
- Adenylyl cyclase inhibition: agonist type (D4.2 dopamine receptor): partial agonist
- EC50 (D4.2 dopamine receptor; AtT-20 cells, D4.2, read-out: Adenylyl cyclase inhibition EC50): 0.82 nM
- Adenylyl cyclase inhibition Ratio of ES609 to quinpirole response (at 300 nM) (D4.2 dopamine receptor; D4.2, 300 nM): 0.60*
- Adenylyl cyclase inhibition: agonist type (D4.2 dopamine receptor; listed as ES0609): Partial
- specificity of agonist effect (eticlopride pretreatment / parental cells) (D3 dopamine receptor): blocked by pretreatment with the antagonist, eticlopride
- GIRK channel activation Ratio of ES609 to quinpirole response (at 300 nM) (D3 dopamine receptor; D3, 300 nM): 0.86
- GIRK channel activation: agonist type (D3 dopamine receptor): full agonist
- GIRK channel activation: agonist type (D3 dopamine receptor; listed as ES0609): Full
- EC50 (D3 dopamine receptor): 30 nM
- motor deficits in a rat PD model [1]: improve motor deficits

Structure (SMILES): CCCN1CC[C@@H]2c3cc(O)ccc3CC[C@@H]21 [PBZI, (3aS,9bR)-3-propyl-1,2,3a,4,5,9b-hexahydrobenzo[e]indol-8-ol]
- Adenylyl cyclase inhibition: agonist type (D2L dopamine receptor): full agonist and full
- EC50 (D2L dopamine receptor; AtT-20 cells, D2L, read-out: Adenylyl cyclase inhibition EC50): 67 nM
- Adenylyl cyclase inhibition Ratio of PBZI to quinpirole response (at 300 nM) (D2L dopamine receptor; D2L, 300 nM): 0.83
- Adenylyl cyclase inhibition: agonist type (D4.2 dopamine receptor): elicited no response and no
- Adenylyl cyclase inhibition EC50 (D4.2 dopamine receptor; AtT-20 cells, D4.2): No response
- Adenylyl cyclase inhibition Ratio of PBZI to quinpirole response (at 300 nM) (D4.2 dopamine receptor; D4.2, 300 nM): 0^†
- adenylyl cyclase inhibition at 300 nM (D4.2 dopamine receptor; D4.2, 300 nM): ^†no adenylyl cyclase inhibition in the presence of 300 nM PBZI; but 300 nM quinpirole elicits ~70% inhibition.
- specificity of agonist effect (eticlopride pretreatment / parental cells) (D3 dopamine receptor): specific for D3 receptors
- GIRK channel activation Ratio of PBZI to quinpirole response (at 300 nM) (D3 dopamine receptor; D3, 300 nM): 1.3
- GIRK channel activation: agonist type (D3 dopamine receptor): full agonists and full
- EC50 (D3 dopamine receptor): 30 nM and 29 nM
- motor deficits in a rat PD model [1]: improve motor deficits
- effect on beneficial effect of levodopa on bradykinesia/akinesia (stepping test) ([1]; co-administration of PBZI and levodopa): did not attenuate the beneficial effect of levodopa
